± gives the expanded uncertainty stated by the source.
Conditions: Liquid, Closed cell (Static) method

SMILES	vapor or sublimation pressure (277.96 K) [kPa]	vapor or sublimation pressure (282.06 K) [kPa]	vapor or sublimation pressure (286.15 K) [kPa]	vapor or sublimation pressure (288.15 K) [kPa]	vapor or sublimation pressure (293.15 K) [kPa]	vapor or sublimation pressure (298.15 K) [kPa]	vapor or sublimation pressure (303.15 K) [kPa]	vapor or sublimation pressure (306.64 K) [kPa]	vapor or sublimation pressure (310.74 K) [kPa]	vapor or sublimation pressure (318.15 K) [kPa]	vapor or sublimation pressure (323.15 K) [kPa]	vapor or sublimation pressure (328.15 K) [kPa]	vapor or sublimation pressure (333.15 K) [kPa]	vapor or sublimation pressure (338.15 K) [kPa]	vapor or sublimation pressure (343.15 K) [kPa]	vapor or sublimation pressure (348.15 K) [kPa]	vapor or sublimation pressure (353.15 K) [kPa]	vapor or sublimation pressure (327.12 K) [kPa]	vapor or sublimation pressure (290.25 K) [kPa]	vapor or sublimation pressure (294.35 K) [kPa]	further results
CCOC(=O)OCC [diethyl carbonate]	0.401 ± 0.13	0.515 ± 0.13	0.666 ± 0.13	0.797 ± 0.13	1.031 ± 0.13	1.414 ± 0.14	1.844 ± 0.19	2.347 ± 0.24	3.012 ± 0.3	4.582 ± 0.46	6.172 ± 0.62	7.162 ± 0.72	9.088 ± 0.91	11.56 ± 1.2	13.78 ± 1.4	16.09 ± 1.6	20.83 ± 2.1				
CC1COC(=O)O1 (stereo not given) [4-methyl-1,3-dioxolan-2-one]														0.123 ± 0.13	0.185 ± 0.13	0.221 ± 0.13	0.287 ± 0.13	0.057			vapor or sublimation pressure (331.22 K): 0.078 ± 0.13 kPa
O [water]	0.961 ± 0.13	1.243 ± 0.13	1.442 ± 0.15					5.035 ± 0.51	7.056 ± 0.71									15.18 ± 1.5	1.947 ± 0.2	2.537 ± 0.26	vapor or sublimation pressure (298.44 K): 3.288 ± 0.33 kPa; vapor or sublimation pressure (302.54 K): 4.068 ± 0.41 kPa; vapor or sublimation pressure (314.83 K): 8.582 ± 0.86 kPa; vapor or sublimation pressure (318.93 K): 9.702 ± 0.97 kPa; vapor or sublimation pressure (323.03 K): 11.46 ± 1.2 kPa
O=C1OCCO1 [ethylene carbonate]													0.045	0.066 ± 0.13	0.087 ± 0.13	0.124 ± 0.13	0.175 ± 0.13				
COC(=O)OC [dimethyl carbonate]	2.298 ± 0.23	3.121 ± 0.32	4.019 ± 0.4			6.982 ± 0.7		11.7 ± 1.2	14.02 ± 1.4	19.82 ± 2	23.07 ± 2.3								4.863 ± 0.49	6.311 ± 0.63	vapor or sublimation pressure (302.54 K): 9.72 ± 0.98 kPa
CCOC(=O)OC [ethyl methyl carbonate]	0.958 ± 0.13	1.285 ± 0.13		2.008 ± 0.2	2.439 ± 0.25	3.658 ± 0.37	4.534 ± 0.46		6.739 ± 0.68		12.28 ± 1.2	15.26 ± 1.5	18.28 ± 1.8								vapor or sublimation pressure (283.15 K): 1.516 ± 0.16 kPa; vapor or sublimation pressure (308.15 K): 5.801 ± 0.58 kPa; vapor or sublimation pressure (314.83 K): 7.885 ± 0.79 kPa

— the NIST ThermoML archive (doi:10.1016/j.jct.2014.07.004)
